In patent publication US10273503B2, “Compounds and methods for enhancing viral gene transfer to human hematopoietic cells” (UNIVERSTÉ DE MONTRÉAL, priority 2015, dated 2019):

Assays:
human CD34+ cells = assay: Expansion of human CD34+ cells (EC50, CD34+CD45RA- cell count); assay type: cell-based; conditions: concentration that results in a 50% increase in CD34+CD45RA- cell count compared to vehicle cultures (DMSO); for EC50: Homo sapiens, read-out: Biological data (EC50)*
human CD34+ CB cells = assay type: cell-based; conditions: for gene transfer efficiency to human CD34+ CB cells and CD34+ subsets, variants of Cmpd1: prestimulated 16 hours and transduced 6 hours in presence of compound, FACS after 3 additional days (FIGS. 16A, 16B)
Experimental: The cells were then exposed for 6 hours to a GFP lentiviral vector (10^6 iu/mL) in the same medium. […] At the end of the culture media, cells were harvested, stained for CD34 and analysed by flow cytometry.
The vector constructs were sequence-verified. […] Virus-containing supernatants were concentrated by ultracentrifugation to achieve titers of 0.5×10^9 to 5×10^9 infectious units/ml. Viral titers were determined by transducing HeLa cells with three dilutions of the lentiviral vector.
Umbilical cord blood (CB) and mobilized peripheral blood (mPB) cells were collected with consent according to procedures approved by the Research Ethics Board of the University of British Columbia. CD34^+ enriched adult bone marrow cells were purchased from […] Technologies. CD34^+ CB and mPB cells were enriched to >90% purity using first RosetteSep™ CD34 preenrichment cocktail ([…] Technologies) followed by positive selection using magnetic beads (EasySep kit, […] Technologies). In some cases additional enrichment was done by sorting CD34^+ cells using an Influx II sorter (BD Bioscience). […] All flow cytometric analysis was performed using a LSRII Fortessa® (BD Biosciences).

[1] = tested on: macaque umbilical cord blood CD34+ cells; conditions: after transplantation of co-cultured macaque cord blood CD34+ cells

In the case of COC(=O)c1ccc2c(c1)[nH]c1nc(-c3ccccc3)nc(NCCCN3CCCCC3)c12 [Cmpd 8, methyl 2-phenyl-4-((3-(piperidin-1-yl)propyl)amino)-9H-pyrimido[4,5-b]indole-7-carboxylate 2,2,2-trifluoroacetate], the “Biological data (EC50)*” value (human CD34+ cells) is reported as “inactive” and the “gene transfer efficiency to human CD34+ CB cells and CD34+ subsets, variants of Cmpd1” value (from here on “gene transfer efficiency”) (human CD34+ CB cells) is reported as “not observed”.
With CCCOC(=O)c1ccc2c(c1)[nH]c1ncnc(NCCCN3CCCCC3)c12 [Cmpd 7, propyl 4-((3-(piperidin-1-yl)propyl)amino)-9H-pyrimido[4,5-b]indole-7-carboxylate] the EC50 (human CD34+ cells) was > 1000 nM and the “gene transfer efficiency” value (human CD34+ CB cells) was “not observed”.
With CC(C)n1cnc2c(NCCc3ccc(O)cc3)nc(-c3csc4ccccc34)nc21 [SR1, StemRegenin 1, reference compound] the “enhancement of lentiviral-mediated gene transfer (in words)” value (human CD34+ CB cells; SR1 0.75 μM, assessed 3 days post-infection on CD34+ cells from cord blood) was “not observed” and the “proportion of primate CD45+ cells in the blood of transplanted mice” value [1] was “not obtained”.
With COC(=O)c1ccc2c(c1)[nH]c1nc(Cc3cccc(F)c3)nc(NCCCN3CCCCC3)c12 [Cmpd 4] the EC50 (human CD34+ cells) was < 100 nM and the “gene transfer efficiency” value (human CD34+ CB cells) was “increase gene transfer efficiency”.
For COC(=O)c1ccc2c(c1)[nH]c1nc(Cc3ccccc3)nc(N(C)CCCN3CCCCC3)c12 [Cmpd 3], the EC50 (human CD34+ cells) was < 100 nM and the “gene transfer efficiency” value (human CD34+ CB cells) was “increase gene transfer efficiency”.
In the case of COC(=O)c1ccc2c(c1)[nH]c1nc(Cc3ccccc3)nc(SCCCN3CCCCC3)c12 [Cmpd 6, methyl 2-benzyl-4-((3-(piperidin-1-yl)propyl)thio)-9H-pyrimido[4,5-b]indole-7-carboxylate], the EC50 (human CD34+ cells) is reported as 250 to 500 nM and the “gene transfer efficiency” value (human CD34+ CB cells) is reported as “increase gene transfer efficiency”.
For CN(CCCNC(=O)CNC(=O)CNC(=O)CN)CCCNc1nc(Cc2ccccc2)nc2[nH]c3cc(-c4nnn(C)n4)ccc3c12 [Cmpd 5, 2-amino-N-(2-((2-((3-((3-((2-benzyl-7-(2-methyl-2H-tetrazol-5-yl)-9H-pyrimido[4,5-b]indol-4-yl)amino)propyl)(methyl)amino)propyl)amino)-2-oxoethyl)amino)-2-oxoethyl)acetamide], the EC50 (human CD34+ cells) was 250 to 500 nM and the “gene transfer efficiency” value (human CD34+ CB cells) was “increase gene transfer efficiency”.
COC(=O)c1ccc2c(c1)[nH]c1nc(C(OC)c3ccccc3)nc(NCCCN3CCCCC3)c12 (stereo not shown) [Cmpd 28] was tested, and the EC50 (human CD34+ cells) was < 100 nM.
CNCCCNc1nc(Cc2ccccc2C)nc2[nH]c3cc(C(=O)OC)cnc3c12 [Cmpd 68] showed an EC50 (human CD34+ cells) of 500 to 1000 nM.
